Assay results taken from the NIST ThermoML archive (doi:10.1021/je800110r).

Details: 303.16 K, Liquid, Vibrating tube method

CCCCCCCCCC [decane]
Details	mass density [kg/m3]
14288 kPa	733.4
14319 kPa	733.4
14353 kPa	733.4
14376 kPa	733.5
14407 kPa	733.3
14434 kPa	733.6
14457 kPa	733.5
14493 kPa	733.5
14524 kPa	733.5
14547 kPa	733.5
14586 kPa	733.6
14617 kPa	733.7
14640 kPa	733.8
14673 kPa	733.7
14705 kPa	733.6
14734 kPa	733.7
14767 kPa	733.7
14792 kPa	733.7
14822 kPa	733.6
14848 kPa	733.7
14871 kPa	733.8
14896 kPa	733.8
14923 kPa	733.7
14942 kPa	734
14976 kPa	734
14997 kPa	733.8
15016 kPa	733.9
15041 kPa	733.8
15066 kPa	734
15088 kPa	733.9
15110 kPa	734
15133 kPa	734
15151 kPa	734
15180 kPa	734
15209 kPa	734.1
15228 kPa	734.1
15257 kPa	734.1
15283 kPa	733.9
15302 kPa	734.1
15329 kPa	734.1
15355 kPa	734.2
15378 kPa	734.3
15404 kPa	734.2
15434 kPa	734.3
15454 kPa	734.3
15481 kPa	734.3
15504 kPa	734.2
15524 kPa	734.3
15557 kPa	734.3
15584 kPa	734.2
15605 kPa	734.4
15639 kPa	734.4
15669 kPa	734.3
15690 kPa	734.4
15720 kPa	734.3
15744 kPa	734.5
15769 kPa	734.4
15790 kPa	734.3
15814 kPa	734.5
15838 kPa	734.6
15867 kPa	734.4
15889 kPa	734.5
15918 kPa	734.5
15947 kPa	734.5
15968 kPa	734.6
15997 kPa	734.6
16029 kPa	734.6
16050 kPa	734.6
16076 kPa	734.7
16098 kPa	734.8
16123 kPa	734.7
16149 kPa	734.7
16172 kPa	734.7
16206 kPa	734.6
16237 kPa	734.7
16261 kPa	734.7
16288 kPa	734.7
16311 kPa	734.9
16331 kPa	734.8
16355 kPa	734.9
16372 kPa	734.9
16395 kPa	734.8
16413 kPa	734.8
16443 kPa	734.9
16470 kPa	735
16490 kPa	735.1
16511 kPa	734.9
16531 kPa	735.1
16553 kPa	735
16574 kPa	734.9
16600 kPa	735
16618 kPa	735.1
16642 kPa	735
16661 kPa	734.8
16691 kPa	735.2
16715 kPa	735
16733 kPa	735.2
16758 kPa	735.1
16785 kPa	735.2
16800 kPa	735.2
16831 kPa	735.2
16853 kPa	735.2
16878 kPa	735.1
16902 kPa	735.2
16924 kPa	735.2
16940 kPa	735.2
16968 kPa	735.3
16994 kPa	735.3
17016 kPa	735.3
17041 kPa	735.4
17063 kPa	735.4
17084 kPa	735.4
17107 kPa	735.3
17129 kPa	735.4
17149 kPa	735.5
17181 kPa	735.4
17207 kPa	735.3
17225 kPa	735.6
17252 kPa	735.5
17278 kPa	735.6
17298 kPa	735.5
17331 kPa	735.5
17354 kPa	735.5
17377 kPa	735.5
17400 kPa	735.5
17419 kPa	735.5
17449 kPa	735.7
17479 kPa	735.7
17503 kPa	735.7
17533 kPa	735.6
17557 kPa	735.7
17581 kPa	735.7
17601 kPa	735.8
17625 kPa	735.8
17645 kPa	735.7
17673 kPa	735.9
